Test results published in PubChem BioAssay AID2060489 (Molecular Pharmacology Branch, DTP, NCI, 2025).

System: 922993-354-T-J3-PDC complex spheroids, viability
Assay: Anticancer human tumor 922993-354-T-J3-PDC patient-derived endometrial carcinoma cell line growth inhibition [GQUAD]
Conditions: for IC50: curve of first compound; for viability, T/C: stronger effect = lower value
Procedure, shortened: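 Viability of tumor cells grown as complex spheroids with endothelial and stromal cells, exposed to drug combinations. Top concentration at or near clinical Cmax (else 10 microM), diluted in half-log increments.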

[1] = second compound 0.0316 µM, first compound 0.0316 µM
[2] = second compound 0.0316 µM, first compound 0.316 µM
[3] = second compound 0.1 µM, first compound 0.0316 µM
[4] = second compound 0.1 µM, first compound 0.316 µM
[5] = second compound 0.316 µM, first compound 0.0316 µM
[6] = second compound 0.316 µM, first compound 0.316 µM
[7] = second compound 1 µM, first compound 0.0316 µM
[8] = second compound 1 µM, first compound 0.316 µM
[9] = second compound 3.16 µM, first compound 0.0316 µM
[10] = second compound 3.16 µM, first compound 0.316 µM
[11] = second compound 10 µM, first compound 0.0316 µM
[12] = second compound 10 µM, first compound 0.316 µM
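Also: spheroids exposed to compounds for seven days.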
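For viability, T/C in this document: 100% = DMSO vehicle control viability.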

For `C=CC(=O)N1CCN(c2nc(=O)n(-c3c(C)ccnc3C(C)C)c3nc(-c4c(O)cccc4F)c(F)cc23)C(C)C1` (centres undefined) + Cc1[nH]c2ccc(F)cc2c1-c1nc2c3cccnc3c3ncccc3c2[nH]1, the IC50 (second compound 0.0316 µM) was over 10000 nM, the IC50 (second compound 0.1 µM) was over 10000 nM and the IC50 (second compound 0.316 µM) was over 10000 nM. The IC50 (second compound 1 µM) was over 10000 nM, the IC50 (second compound 3.16 µM) was over 10000 nM and the IC50 (second compound 10 µM) was over 10000 nM. It also gave a viability, T/C [1] of 94.6%, a viability, T/C (second compound 0.0316 µM, first compound 0.1 µM) of 86% and a viability, T/C [2] of 94.8%. The viability, T/C (second compound 0.0316 µM, first compound 1 µM) was 101%, the viability, T/C (second compound 0.0316 µM, first compound 3.16 µM) was 111% and the viability, T/C (second compound 0.0316 µM, first compound 10 µM) was 116%. The viability, T/C [3] was 106%, the viability, T/C (second compound 0.1 µM, first compound 0.1 µM) was 69.4% and the viability, T/C [4] was 99.3%. For the same compound, the viability, T/C (second compound 0.1 µM, first compound 1 µM) was 127%, the viability, T/C (second compound 0.1 µM, first compound 3.16 µM) was 92% and the viability, T/C (second compound 0.1 µM, first compound 10 µM) was 98.7%. It also gave a viability, T/C [5] of 130%, a viability, T/C (second compound 0.316 µM, first compound 0.1 µM) of 95% and a viability, T/C [6] of 117%. For the same compound, the viability, T/C (second compound 0.316 µM, first compound 1 µM) was 118%, the viability, T/C (second compound 0.316 µM, first compound 3.16 µM) was 114% and the viability, T/C (second compound 0.316 µM, first compound 10 µM) was 113%. The viability, T/C [7] was 92.9%, the viability, T/C (second compound 1 µM, first compound 0.1 µM) was 124% and the viability, T/C [8] was 133%. It also gave a viability, T/C (second compound 1 µM, first compound 1 µM) of 112%, a viability, T/C (second compound 1 µM, first compound 3.16 µM) of 93.6% and a viability, T/C (second compound 1 µM, first compound 10 µM) of 107%. It also gave a viability, T/C [9] of 114%, a viability, T/C (second compound 3.16 µM, first compound 0.1 µM) of 91.2% and a viability, T/C [10] of 105%. The viability, T/C (second compound 3.16 µM, first compound 1 µM) was 104%, the viability, T/C (second compound 3.16 µM, first compound 3.16 µM) was 96.2% and the viability, T/C (second compound 3.16 µM, first compound 10 µM) was 88%. The viability, T/C [11] was 88.7%, the viability, T/C (second compound 10 µM, first compound 0.1 µM) was 103% and the viability, T/C [12] was 81.3%. For the same compound, the viability, T/C (second compound 10 µM, first compound 1 µM) was 90.7%, the viability, T/C (second compound 10 µM, first compound 3.16 µM) was 103% and the viability, T/C (second compound 10 µM, first compound 10 µM) was 87.1%.
`CCc1c2c(nc3ccc(O)cc13)-c1cc3c(c(=O)n1C2)COC(=O)[C@]3(O)CC` + Cc1[nH]c2ccc(F)cc2c1-c1nc2c3cccnc3c3ncccc3c2[nH]1 showed an IC50 (second compound 0.0316 µM) of 7.56 nM, an IC50 (second compound 0.1 µM) of 8.08 nM and an IC50 (second compound 0.316 µM) of 6.62 nM. The IC50 (second compound 1 µM) was 8.02 nM, the IC50 (second compound 3.16 µM) was 7.57 nM and the IC50 (second compound 10 µM) was 6.77 nM. It also gave a viability, T/C (second compound 0.0316 µM, first compound 0.000999 µM) of 91.8%, a viability, T/C (second compound 0.0316 µM, first compound 0.00316 µM) of 68.3% and a viability, T/C (second compound 0.0316 µM, first compound 0.00999 µM) of 48.7%. It also gave a viability, T/C [1] of 22.1%, a viability, T/C (second compound 0.0316 µM, first compound 0.0999 µM) of 25.9% and a viability, T/C [2] of 32.9%. The viability, T/C (second compound 0.1 µM, first compound 0.000999 µM) was 103%, the viability, T/C (second compound 0.1 µM, first compound 0.00316 µM) was 81.9% and the viability, T/C (second compound 0.1 µM, first compound 0.00999 µM) was 44.2%. For the same compound, the viability, T/C [3] was 24.4%, the viability, T/C (second compound 0.1 µM, first compound 0.0999 µM) was 25.4% and the viability, T/C [4] was 33%. It also gave a viability, T/C (second compound 0.316 µM, first compound 0.000999 µM) of 119%, a viability, T/C (second compound 0.316 µM, first compound 0.00316 µM) of 76.1% and a viability, T/C (second compound 0.316 µM, first compound 0.00999 µM) of 36.6%. For the same compound, the viability, T/C [5] was 23.4%, the viability, T/C (second compound 0.316 µM, first compound 0.0999 µM) was 24.6% and the viability, T/C [6] was 36.5%. It also gave a viability, T/C (second compound 1 µM, first compound 0.000999 µM) of 101%, a viability, T/C (second compound 1 µM, first compound 0.00316 µM) of 82.4% and a viability, T/C (second compound 1 µM, first compound 0.00999 µM) of 43.4%. It also gave a viability, T/C [7] of 24.3%, a viability, T/C (second compound 1 µM, first compound 0.0999 µM) of 22.6% and a viability, T/C [8] of 32.1%. The viability, T/C (second compound 3.16 µM, first compound 0.000999 µM) was 105%, the viability, T/C (second compound 3.16 µM, first compound 0.00316 µM) was 67.2% and the viability, T/C (second compound 3.16 µM, first compound 0.00999 µM) was 53.6%. The viability, T/C [9] was 15.6%, the viability, T/C (second compound 3.16 µM, first compound 0.0999 µM) was 31.4% and the viability, T/C [10] was 28.9%. For the same compound, the viability, T/C (second compound 10 µM, first compound 0.000999 µM) was 102%, the viability, T/C (second compound 10 µM, first compound 0.00316 µM) was 65.4% and the viability, T/C (second compound 10 µM, first compound 0.00999 µM) was 48.5%. For the same compound, the viability, T/C [11] was 18.8%, the viability, T/C (second compound 10 µM, first compound 0.0999 µM) was 22.9% and the viability, T/C [12] was 33.6%.
